Data on 15 compounds can be found in ChEMBL document CHEMBL1201862, “PubChem BioAssay data set” (2004).

Among the test systems are Hs-578T; SR; A549; SW-620; MDA-N; MCF7; ACHN; M14; TK-10; OVCAR-4; HOP-18; SNB-78; HCT-116; DLD-1; SN12C; DMS-114; DMS-273; KM-20L2; M19-MEL; XF498.
Test in all cases: NCI anticancer screen, dose series, 48 h

Each structure is given as a SMILES string.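 Exposure lasted 48 hours, with cells grown in 96-well plates and compounds tested at five concentrations. The concentration for 50% growth inhibition is given as GI50.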 Calls of active or inactive are those of the source. Cut-off read from the data, not from the text of the source: active = GI50 up to about 1.1 µM and inactive = higher.

For `Cc1ccc(C(=O)N/N=C(\N=N\c2cccc(C)c2)c2ccc(N(CCC#N)CCC#N)cc2C)cc1`, the GI50 is 51.9 µM (inactive) in the assay with Hs-578T; 55.1 µM (inactive) in the assay on SR; > 100 µM (inactive) in the assay on A549; 50.5 µM (inactive) in the assay with SW-620; 54.7 µM (inactive) in the assay with MDA-N; 67.5 µM (inactive) in the assay on MCF7. Moreover, the GI50 in the assay on ACHN was > 100 µM (inactive); with M14, 89.5 µM (inactive); in the assay with TK-10, > 100 µM (inactive); with OVCAR-4 it was > 100 µM (inactive).
Regarding `COc1ccc(C(=O)Cc2cc(OC)ccc2OC)cc1`, the GI50 was > 100 µM (inactive) in the assay with HOP-18; > 100 µM (inactive) in the assay on SR; > 100 µM (inactive) in the assay on A549; > 100 µM (inactive) in the assay with SW-620; 42.4 µM (inactive) in the assay on SNB-78; > 100 µM (inactive) with HCT-116. Moreover, the GI50 with DLD-1 was > 100 µM (inactive); in the assay with ACHN, > 100 µM (inactive); in the assay with M14 it was > 100 µM (inactive); in the assay with SN12C, > 100 µM (inactive); in the assay on DMS-114 it was 66.8 µM (inactive); in the assay with DMS-273 it was > 100 µM (inactive). The GI50 in the assay with TK-10, in the assay with KM-20L2, in the assay with M19-MEL and in the assay with OVCAR-4 was > 100 µM (inactive) each time.
As for `CCOC(=O)C1=NN(c2ccccc2)C2=CC(C)=NN(C)C(=S)N21`, the GI50 with Hs-578T, in the assay with SR, in the assay with A549, in the assay on SW-620, in the assay on MDA-N and in the assay with MCF7 was > 100 µM (inactive) in each case. Further, the GI50 with HCT-116, with ACHN, in the assay on M14, in the assay with SN12C, in the assay with TK-10 and in the assay with OVCAR-4 was > 100 µM (inactive) in each case.
With `Cc1nnc(N)s/c1=N/O`, the GI50 in the assay on Hs-578T, in the assay with A549, in the assay with SW-620, with MDA-N, in the assay with MCF7 and with HCT-116 was > 100 µM (inactive) throughout. The GI50 in the assay on ACHN, in the assay with M14, in the assay with SN12C, in the assay on TK-10 and in the assay on OVCAR-4 was > 100 µM (inactive) in each case.
Regarding `Cc1ccc(C(=O)Nc2ncn(C3CC(O)C(CO)O3)c(=O)n2)cc1` (stereo unspecified), the GI50 is > 68.2 µM (inactive) in the assay on HOP-18; > 100 µM (inactive) with A549; > 100 µM (inactive) in the assay on SW-620; > 100 µM (inactive) in the assay with MCF7; > 65.5 µM (inactive) with SNB-78; > 100 µM (inactive) in the assay with HCT-116. Further, the GI50 in the assay on XF498, with DLD-1, in the assay with SN12C, in the assay with DMS-114, in the assay on DMS-273 and with M19-MEL was > 100 µM (inactive) in each case. Besides, the GI50 in the assay with OVCAR-4 was > 100 µM (inactive).
On to `O=C(O)C12CC3CC(C1)C2C=C3P(=O)(O)O` (stereo unspecified), for which the GI50 in the assay with SW-620, with HCT-116, in the assay with DLD-1, with ACHN, in the assay with M14 and in the assay on SN12C was > 100 µM (inactive) in each case. For the same compound, the GI50 in the assay on DMS-114, with DMS-273, with TK-10, in the assay with KM-20L2, in the assay with M19-MEL and in the assay on OVCAR-4 was > 100 µM (inactive) in each case.
In the case of `CN(C)CCNC(=O)c1cccc2nc(-c3ccccc3)oc12`, the GI50 in the assay with HOP-18 was > 61.2 µM (inactive); with A549, 42.6 µM (inactive); with SW-620 it was 39.2 µM (inactive); in the assay on MCF7, 14.7 µM (inactive); with SNB-78 it was > 72.6 µM (inactive); with HCT-116 it was 32.1 µM (inactive). For the same compound, the GI50 was 34.3 µM (inactive) with XF498; 31.9 µM (inactive) in the assay on DLD-1; 41.1 µM (inactive) in the assay on SN12C; 47.1 µM (inactive) in the assay with DMS-114; 28.8 µM (inactive) in the assay with KM-20L2; 33 µM (inactive) in the assay with M19-MEL. Also, the GI50 with OVCAR-4 was 26.5 µM (inactive).
Consider `CC(=O)Nc1ccc(/C=C/c2ccc(NC(=O)Nc3ccc(/C=C/c4ccc(NC(C)=O)cc4S(=O)(=O)O)c(S(=O)(=O)O)c3)cc2S(=O)(=O)O)c(S(=O)(=O)O)c1`, for which the GI50 in the assay on HOP-18 was > 95.5 µM (inactive); in the assay on A549, > 100 µM (inactive); with SW-620, > 100 µM (inactive); in the assay on MCF7, > 100 µM (inactive); in the assay on SNB-78 it was > 100 µM (inactive); in the assay on HCT-116 it was > 100 µM (inactive). Also, the GI50 with XF498 is > 48 µM (inactive); in the assay with DLD-1, > 100 µM (inactive); in the assay with SN12C, > 100 µM (inactive); in the assay on DMS-114 it was 60.5 µM (inactive); with DMS-273, > 87.9 µM (inactive); in the assay with KM-20L2 it was 77.8 µM (inactive). The GI50 in the assay on M19-MEL and with OVCAR-4 was > 100 µM (inactive) throughout.
Consider `CCCCCOc1ccc(/C=N\c2ccc(-c3ccc(/N=C\c4ccc(OCCCCC)cc4)c(OC)c3)cc2OC)cc1`, for which the GI50 in the assay on HOP-18 is 24.3 µM (inactive); with A549 it was > 100 µM (inactive); with SW-620, > 100 µM (inactive); in the assay with MCF7, > 100 µM (inactive); in the assay on SNB-78 it was > 84.9 µM (inactive); with HCT-116 it was > 100 µM (inactive). Further, the GI50 in the assay on XF498, with DLD-1, with SN12C, with DMS-114, in the assay with DMS-273 and in the assay on KM-20L2 was > 100 µM (inactive) throughout. In addition, the GI50 with M19-MEL was > 100 µM (inactive); with OVCAR-4 it was > 31.6 µM (inactive).
`Cc1cc(O)nc(NN2C(Cl)C(=O)C2c2c(O)ccc3ccccc23)n1` (stereo unspecified): the GI50 in the assay on HOP-18 is 12 µM (inactive); in the assay on SR it was 12 µM (inactive); with A549, 36.2 µM (inactive); with SW-620, 30.2 µM (inactive); in the assay with SNB-78 it was 20.1 µM (inactive); in the assay on HCT-116, 17.3 µM (inactive). The GI50 with ACHN was 20.7 µM (inactive); with M14, 15.2 µM (inactive); with SN12C, 21.7 µM (inactive); with DMS-114 it was 19.8 µM (inactive); in the assay with DMS-273, 16.4 µM (inactive); in the assay on TK-10 it was 37.2 µM (inactive). Moreover, the GI50 is 22.6 µM (inactive) in the assay on KM-20L2, 39.6 µM (inactive) in the assay with M19-MEL and 17.3 µM (inactive) in the assay on OVCAR-4.
For the compound `CC(=O)OC1CC2(O)C(CCC3(C)C(c4ccc(=O)oc4)CCC32O)C2(C)CCC(O)C=C12` (stereo unspecified), the GI50 was 0.0094 µM (active) in the assay on HOP-18; 0.0375 µM (active) in the assay with SW-620; 0.0375 µM (active) in the assay on MCF7; 0.00989 µM (active) in the assay on SNB-78; 0.0375 µM (active) in the assay on HCT-116; 0.0381 µM (active) in the assay on XF498. The GI50 is 0.0375 µM (active) in the assay with DLD-1; 0.00462 µM (active) in the assay with SN12C; 0.00116 µM (active) with DMS-114; 0.005 µM (active) with DMS-273; 0.0219 µM (active) with KM-20L2; 0.0234 µM (active) in the assay with M19-MEL. Moreover, the GI50 in the assay on OVCAR-4 was 0.0206 µM (active).
In the case of `O=C(/N=N/c1cc(Cl)ccc1Cl)NNc1cc(Cl)ccc1Cl`, the GI50 in the assay on Hs-578T was 25.5 µM (inactive); in the assay with SR, 21.2 µM (inactive); with MDA-N, 25.4 µM (inactive); in the assay with MCF7, 18.4 µM (inactive); with HCT-116 it was 18.6 µM (inactive); with M14 it was 17.1 µM (inactive). In addition, the GI50 in the assay on SN12C is 21.4 µM (inactive).
Take `CC(C(=O)OCc1ccccc1)N(Cc1ccccc1)Cc1ccccc1` (stereo unspecified): the GI50 with SR is 31 µM (inactive); in the assay with A549 it was > 100 µM (inactive); with SW-620 it was > 100 µM (inactive); with SNB-78, > 100 µM (inactive); in the assay on HCT-116 it was > 100 µM (inactive); with XF498, 24 µM (inactive). Besides, the GI50 with DLD-1 is > 100 µM (inactive); in the assay on ACHN, 87.3 µM (inactive); with M14 it was > 100 µM (inactive); in the assay on SN12C, > 100 µM (inactive); in the assay with DMS-114 it was 60.7 µM (inactive); in the assay with DMS-273, 57.9 µM (inactive). For the same compound, the GI50 in the assay with TK-10, in the assay on KM-20L2 and in the assay with OVCAR-4 was > 100 µM (inactive) in each case.
As for `CC(=O)NNc1nc(C)c(C(=O)NNC(=O)C(=O)Nc2c(C)cccc2C(C)(C)C)s1`, the GI50 is 48.2 µM (inactive) in the assay with SR; 46.9 µM (inactive) with A549; > 100 µM (inactive) with SW-620; > 100 µM (inactive) in the assay with SNB-78; 75.2 µM (inactive) in the assay on HCT-116; > 100 µM (inactive) in the assay with XF498. Moreover, the GI50 in the assay with DLD-1 was 61.8 µM (inactive); in the assay on ACHN, 59.4 µM (inactive); in the assay with M14, > 100 µM (inactive); in the assay with SN12C it was 44.2 µM (inactive); with DMS-273, 47.1 µM (inactive); with TK-10 it was > 100 µM (inactive). Moreover, the GI50 in the assay with KM-20L2 is 83.4 µM (inactive); in the assay with M19-MEL, 48 µM (inactive); with OVCAR-4, 40.3 µM (inactive).
As to `CCCCCCCCCC[C@@H](O)[C@@H]1CC[C@@H]([C@@H]2CC[C@@H]([C@@H](O)CCCCCCCCCCC(O)CC3=CC(C)OC3=O)O2)O1` (stereo partly specified), the GI50 was > 10 µM (inactive) in the assay with Hs-578T; 1.4 µM (inactive) in the assay with SR; 2.53 µM (inactive) in the assay on A549; 8.2 µM (inactive) with SW-620; 1.36 µM (inactive) with MCF7; 0.551 µM (active) in the assay with HCT-116. Also, the GI50 in the assay with ACHN was 0.931 µM (active); in the assay with M14, > 10 µM (inactive); with SN12C, > 10 µM (inactive); in the assay with TK-10, > 10 µM (inactive); in the assay with OVCAR-4, 1.38 µM (inactive).
